One series concerns Apis mellifera. The settings on record: acute, mortality.
For another series, the system named is Beta vulgaris. The note with it: not reported; seedling emergence.
A further series has as its system Bibionidae. The note with it: chronic/long-term; duration: 28 days; seedling emergence.
Another series has as its system Daphnia magna. The settings on record: chronic/long-term; duration: 21 days; reproduction.
The next series deals with Mus musculus. The note with it: acute; oral; mortality.
Another series deals with Oncorhynchus mykiss. The note with it: mortality.
The subject of another series is Oryctolagus sp. The note with it: developmental; development.
The subject of another series is Typhlodromus pyri. The note with it: acute; duration: 7 days; mortality.

Converted amounts (≈) assume the structure as drawn.

One may read the NOAEL as the highest tested level that showed no adverse finding. For `CC1(C)CCC(Cc2ccc(Cl)cc2)C1(O)Cn1cncn1` (stereo not given) [Metconazole], the LD50 in the series with Apis mellifera (duration: 72 hours, oral, unspecified) was more than 85 µg/piece; in the series with Apis mellifera (duration: 96 hours, dermal) it was more than 100 µg/piece; in the series on Bird (acute, oral, unspecified, mortality), 787 mg/kg; in the series with Mus musculus, 410 mg/kg. The NOEC worked out at 96 g/ha in the series on Beta vulgaris; 2.12 mg/L with Bibionidae; 6.19 mg/kg-day in the series with Bird (reproductive, duration: 22 weeks); 0.16 mg/L in the series on Daphnia magna; 0.00291 mg/L in the series with Oncorhynchus mykiss (chronic/long-term, duration: 95 days); 1.8 mg/kg with Tagia sp. (chronic/long-term, reproduction). Further, the LC50 was 168 mg/kg-day in the series with Bird (short-term, oral, feed, mortality); 2.1 µg/mL (≈ 6.57 µM) in the series with Oncorhynchus mykiss (acute, duration: 72 hours); more than 1000 mg/kg in the series with Tagia sp. (acute, duration: 14 days, mortality). In the series on Oryctolagus sp., this compound showed an NOAEL of 4 mg/kg-day. The LEL with Typhlodromus pyri was 180 g/ha.

(Values after EPA's ToxValDB 9.5 (doi:10.2903/j.efsa.2006.64r).)
